# Measurements: patent US9695205B2, “Amide compounds for treatment of complement mediated disorders” (Achillion Pharmaceuticals, Inc., priority 2014, dated 2017)
# pIC50: −log10 of the molar value.
# Target: Human factor D (Homo sapiens (Human), UniProt P00746)
# Assay: Human Factor D Assay
# Assay type: biochemical
# Conditions: Human factor D 80 nM, substrate Z-L-Lys-SBzl and DTNB 100 μM each, pH 7.5
# Experimental: Example 14. Human Factor D Assay
# Human factor D (purified from human serum, Complement Technology, Inc.) at 80 nM final concentration is incubated with test compound at various concentrations for 5 minutes at room temperature in 50 mM Tris, 1M NaCl, pH 7.5. A synthetic substrate Z-L-Lys-SBzl and DTNB (Ellman's reagent) are added to final concentrations of 100 μM each. The increase in color is recorded at OD405 nm in a microplate in kinetic mode over 30 minutes with 30 second time points in a spectrofluorimeter. IC50 values are calculated by non-linear regression from the percentage of inhibition of complement factor D activity as a function of test compound concentration.
# Chain of Human factor D (P00746 26-253): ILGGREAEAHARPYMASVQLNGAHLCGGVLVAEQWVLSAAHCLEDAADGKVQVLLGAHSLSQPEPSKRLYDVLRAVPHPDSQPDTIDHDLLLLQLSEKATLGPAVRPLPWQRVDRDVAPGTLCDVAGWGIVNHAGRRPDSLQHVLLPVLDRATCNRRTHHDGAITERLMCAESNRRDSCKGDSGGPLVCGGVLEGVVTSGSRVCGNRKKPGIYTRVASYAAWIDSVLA
row,SMILES,pIC50
1,"NC(=O)c1nn(CC(=O)N2C[C@H](F)C[C@H]2C(=O)Nc2cccc(-c3ccccc3Cl)c2F)c2ccc(NC(=O)NCc3ncccn3)cc12 [Compound 32, 1-(2-((2S,4R)-2-(2′-chloro-2-fluorobiphenyl-3-ylcarbamoyl)-4-fluoropyrrolidin-1-yl)-2-oxoethyl)-5-(3-(pyrimidin-2-ylmethyl)ureido)-1H-indazole-3-carboxamide]",> 6.00
2,"NC(=O)c1nn(CC(=O)N2[C@@H]3C[C@@H]3C[C@H]2C(=O)Nc2cccc(Br)n2)c2ccc(NC(=O)N3CCCC(F)(F)C3)cc12 [Compound 34, 1-(2-((1R,3S,5R)-3-(6-bromopyridin-2-ylcarbamoyl)-2-azabicyclo[3.1.0]hexan-2-yl)-2-oxoethyl)-5-(3,3-difluoropiperidine-1-carboxamido)-1H-indazole-3-carboxamide]",> 6.00
3,"CC(=O)c1cn(CC(=O)N2C[C@H](F)C[C@H]2C(=O)Nc2cccc(OC(F)(F)F)c2F)c2ccc(NC(=O)NC3CC3)cc12 [Compound 10, (2S,4R)-1-(2-(3-acetyl-5-(3-cyclopropylureido)-1H-indol-1-yl)acetyl)-4-fluoro-N-(2-fluoro-3-(trifluoromethoxy)phenyl) pyrrolidine-2-carboxamide]",> 6.00
4,"CC(=O)c1cn(CC(=O)N2C[C@H](F)C[C@H]2C(=O)Nc2cccc(-c3ccccc3Cl)c2F)c2ccc(NC(=O)CC(F)(F)F)cc12 [Compound 36, (2S,4R)-1-(2-(3-acetyl-5-(3,3,3-trifluoropropanamido)-1H-indol-1-yl)acetyl)-N-(2′-chloro-2-fluorobiphenyl-3-yl)-4-fluoropyrrolidine-2-carboxamide]",> 6.00
5,"CC(=O)c1cn(CC(=O)N2[C@@H]3C[C@@H]3C[C@H]2C(=O)NCc2cccc(Cl)c2F)c2ccc(NC(=O)NC3CC3)cc12 [Compound 3, (1R,3S,5R)-2-(2-(3-acetyl-5-(3-cyclopropylureido)-1H-indol-1-yl)acetyl)-N-(3-chloro-2-fluorobenzyl)-2-azabicyclo[3.1.0]hexane-3-carboxamide]",> 6.00
6,CC(=O)c1cn(CC(=O)N2C[C@H](F)C[C@H]2C(=O)NCc2cccc(Cl)c2F)c2cc(C(=O)NS(=O)(=O)c3ccccc3)ccc12 [Compound 53],> 6.00
7,CC(=O)c1cn(CC(=O)N2C[C@H](F)C[C@H]2C(=O)NCc2cccc(Cl)c2F)c2cc(C(=O)NCC3CCN(C(=O)OC(C)(C)C)C3)ccc12 (stereo partly shown) [Compound 50],> 6.00
8,"CC(=O)c1cn(CC(=O)N2C[C@H](F)C[C@H]2C(=O)NCc2cccc(Cl)c2F)c2cc(C(=O)N[C@H]3CCN(C(C)=O)C3)ccc12 [Compound 46, 3-acetyl-N-((S)-1-acetylpyrrolidin-3-yl)-1-(2-((2S,4R)-2-(3-chloro-2-fluorobenzylcarbamoyl)-4-fluoropyrrolidin-1-yl)-2-oxoethyl)-1H-indole-6-carboxamide]",> 6.00
9,"NC(=O)c1nn(CC(=O)N2C[C@H](F)C[C@H]2C(=O)Nc2cccc(OC(F)(F)F)c2F)c2ccc(NC(=O)N3CCCC(F)(F)C3)cc12 [Compound 26, 5-(3,3-difluoropiperidine-1-carboxamido)-1-(2-((2S,4R)-4-fluoro-2-(2-fluoro-3-(trifluoromethoxy)phenylcarbamoyl)pyrrolidin-1-yl)-2-oxoethyl)-1H-indazole-3-carboxaide]",> 6.00
10,"CC(=O)c1cn(CC(=O)N2C[C@H](F)C[C@H]2C(=O)NCc2cccc(Cl)c2F)c2ccc(NC(=O)N3Cc4cncnc4C3)cc12 [Compound 22, N-(3-acetyl-1-(2-((2S,4R)-2-(3-chloro-2-fluorobenzylcarbamoyl)-4-fluoropyrrolidin-1-yl)-2-oxoethyl)-1H-indol-5-yl)-5H-pyrrolo[3,4-d]pyrimidine-6(7H)-carboxamide]",> 6.00
11,"CC(=O)c1cn(CC(=O)N2C[C@H](F)C[C@H]2C(=O)NCc2cccc(Cl)c2F)c2ccc(C(=O)NC3CC3)cc12 [Compound 41, 3-acetyl-1-(2-((2S,4R)-2-(3-chloro-2-fluorobenzylcarbamoyl)-4-fluoropyrrolidin-1-yl)-2-oxoethyl)-N-cyclopropyl-1H-indole-5-carboxamide]",> 6.00
12,"CC(=O)c1cn(CC(=O)N2C[C@H](F)C[C@H]2C(=O)NCc2cccc(Cl)c2F)c2cc(C(=O)NCC3CCNC3)ccc12 (stereo partly drawn) [Compound 49, 3-acetyl-1-(2-((2S,4R)-2-(3-chloro-2-fluorobenzylcarbamoyl)-4-fluoropyrrolidin-1-yl)-2-oxoethyl)-N-(pyrrolidin-3-ylmethyl)-1H-indole-6-carboxamide]",> 6.00
13,"NC(=O)c1nn(CC(=O)N2C[C@H](F)C[C@H]2C(=O)Nc2cccc(Br)n2)c2ccc(NC(=O)N3CCCC(F)(F)C3)cc12 [Compound 33, 1-(2-((2S,4R)-2-(6-bromopyridin-2-ylcarbamoyl)-4-fluoropyrrolidin-1-yl)-2-oxoethyl)-5-(3,3-difluoropiperidine-1-carboxamido)-1H-indazole-3-carboxamide]",> 6.00
14,"NC(=O)c1nn(CC(=O)N2[C@@H]3C[C@@H]3C[C@H]2C(=O)Nc2cccc(-c3ccccc3Cl)c2F)c2ccc(NC(=O)N3CCCC(F)(F)C3)cc12 [Compound 28, 1-(2-((1R,3S,5R)-3-(2′-chloro-2-fluorobiphenyl-3-ylcarbamoyl)-2-azabicyclo[3.1.0]hexan-2-yl)-2-oxoethyl)-5-(3,3-difluoropiperidine-1-carboxamido)-1H-indazole-3-carboxamide]",> 6.00
15,"NC(=O)c1nn(CC(=O)N2C[C@H](F)C[C@H]2C(=O)Nc2cccc(-c3ccccc3Cl)c2F)c2ccc(NC(=O)N3CCC(F)(F)C3)cc12 [Compound 30, 1-(2-((2S,4R)-2-(2′-chloro-2-fluorobiphenyl-3-ylcarbamoyl)-4-fluoropyrrolidin-1-yl)-2-oxoethyl)-5-(3,3-difluoropyrrolidine-1-carboxamido)-1H-indazole-3-carboxamide]",> 6.00
16,"CC(=O)c1cn(CC(=O)N2C[C@H](F)C[C@H]2C(=O)NCc2cccc(Cl)c2F)c2ccc(NC(=O)NCc3nn[nH]n3)cc12 [Compound 2, (2S,4R)-1-(2-(5-(3-((2H-tetrazol-5-yl)methyl)ureido)-3-acetyl-1H-indo-1-yl)acetyl)-N-(3-chloro-2-fluorobenzyl)-4-fluoropyrrolidine-2-carboxamide]",> 6.00
